Measurements taken from patent US20060074243A1, “Hydroxamic acid and amide compounds and their use as protease inhibitors” (Pharmacia Corporation, priority 2002, published 2006).
pKi: −log10 of the molar value.

How the values were obtained:
Human recombinant MMP-13 = target: T1, Human recombinant MMP-13 (Homo sapiens, UniProt P45452); assay: In vitro MMP inhibition analysis (fluorogenic peptide substrate cleavage), Ki; type: biochemical
T1 construct: made in house; host or cells: baculovirus / insect cells
Experimental: (§1) Several compounds and salts were analyzed in an in vitro assay to determine their ability to inhibit the MMP cleavage of peptide substrates. Inhibition constant (Ki) were calculated from the assayed compound-MMP interactions.
(§2) Human recombinant MMP-1, MMP-2, MMP-9, MMP-13, and MMP-14 were used in this assay. All enzymes were prepared in Assignee's laboratories following usual laboratory procedures. Protocols for the preparation and use of these enzymes are available in the scientific literature. See, e.g., Enzyme Nomenclature (Academic Press, San Diego, Calif., 1992) (and the citations therein). See also, Frije et al., J. Biol. Chem., 26(24), 16766-73 (1994).
The MMP-13 was obtained as a proenzyme from a full-length cDNA clone using baculovirus, as described by V. A. Luckow, “Insect Cell Expression Technology,” Protein Engineering: Principles and Practice, pp. 183-218 (edited by J. L. Cleland et al., Wiley-Liss, Inc., 1996). The expressed proenzyme was first purified over a heparin agarose column, and then over a chelating zinc chloride column. The proenzyme was then activated by APMA for use in the assay. Further details on baculovirus expression systems may be found in, for example, Luckow et al., J. Virol., 67, 4566-79 (1993). See also, O'Reilly et al, Baculovirus Expression Vectors: A Laboratory Manual (W.H. Freeman and Co., New York, N.Y., 1992). See also, King et al., The Baculovirus Expression System: A Laboratory Guide (Chapman & Hall, London, England, 1992).
(§3) All MMPs were activated using 4-aminophenylmercuric acetate (“APMA”, Sigma Chemical, St. Louis, Mo.) or trypsin. MMP-9 also was activated using human recombinant MMP-3 (purified in Assignee's laboratory following standard cloning and purification techniques).
(§4) The following fluorogenic, methoxycoumarin-containing polypeptide substrate (I) was used in the MMP inhibition assays: MCA-ArgProLeuGlyLeuDpaAlaArgGluArgNH2 (I) “MCA” is 7-methoxycoumarin-4-yl acetyl. Substrate (I) was prepared Assignee's laboratory. In the absence of MMP inhibitory activity, the substrate is cleaved at the Gly-Leu peptide bond. This cleavage separates the highly fluorogenic peptide from the 2,4-dinitrophenyl quencher, thus resulting in increase of fluorescent intensity.
(§5) The stock solutions of the assayed compounds and salts were prepared in […] (DMSO). These stock solutions were diluted in Buffer A (100 mM Tris-HCl, 100 mM NaCl, 10 mM CaCl2, 0.05% polyoxyethylene 23 lauryl ether, pH 7.5) to obtain solutions with different compound concentrations, i.e., assay solutions with different concentrations of the assayed […] compound. The experiment controls contained the same amount of Buffer A/DMSO as the assayed sample, but contained none of the tested compound or salt.
The assays from which the Ki determinations were made were performed as follows. The assayed compound samples were incubated in separate wells of untreated white polystyrene plates (Nunc Nalgene International, Rochester, N.Y.), and analyzed on a Tecan SpectraFlour Plus plate reader. The excitation wavelength was 330 nm, and the emission wavelength—420 nm. All samples (assayed compounds and controls) were incubated in separate plate wells at room temperature for 1 hr in the presence of 4 μM of MMP substrate (I). In the absence of MMP inhibitory activity, substrate (I) was cleaved at the Gly-Leu bond resulting in an increase of relative fluorescence. Inhibition was observed as a reduced rate of this increase in relative fluorescence. […] This protocol is a modification of method by Knight et al., FEBS Lett., 296(3), 263-266 (1992). Apparent inhibitory constants were determined by non-linear regression of reaction velocity as a function of inhibitor and enzyme concentration using Morrison's equation, as described by Kuzmic, Anal. Biochem. 286, 45-50 (2000). […]

Human recombinant MMP-9 = target: T2, Human recombinant MMP-9 (Homo sapiens, UniProt P14780); assay: as above; type: biochemical
T2 construct: made in house; host or cells: MMP-9-transfected HT1080 cells (spent media)
T2 sequence (P14780 107-707 limits assumed): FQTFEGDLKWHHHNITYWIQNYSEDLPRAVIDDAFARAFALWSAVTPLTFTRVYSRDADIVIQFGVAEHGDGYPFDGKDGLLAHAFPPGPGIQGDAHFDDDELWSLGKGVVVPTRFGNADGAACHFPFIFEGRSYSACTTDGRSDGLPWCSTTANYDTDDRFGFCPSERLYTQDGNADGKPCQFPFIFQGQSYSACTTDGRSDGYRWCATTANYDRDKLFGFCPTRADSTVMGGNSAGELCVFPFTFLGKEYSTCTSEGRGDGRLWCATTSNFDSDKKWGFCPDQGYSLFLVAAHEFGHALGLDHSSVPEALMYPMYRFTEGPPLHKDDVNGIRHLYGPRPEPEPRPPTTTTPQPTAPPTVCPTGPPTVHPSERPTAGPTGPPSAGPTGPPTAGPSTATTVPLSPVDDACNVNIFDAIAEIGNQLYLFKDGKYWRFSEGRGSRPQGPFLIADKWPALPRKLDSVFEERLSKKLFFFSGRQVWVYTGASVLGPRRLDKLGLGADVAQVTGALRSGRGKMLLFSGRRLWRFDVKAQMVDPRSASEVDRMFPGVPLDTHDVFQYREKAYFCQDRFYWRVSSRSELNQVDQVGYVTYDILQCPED
Experimental: as §1, §2
The MMP-9 proenzyme was purified by gelatin Sepharose chromatography from spent media of MMP-9-transfected HT1080 cells provided by Dr. Howard Welgus of Washington University (St. Louis, Mo.).
as §3, §4, §5
The assays from which the Ki determinations were made were performed as follows. The assayed compound samples were incubated in separate wells of untreated white polystyrene plates (Nunc Nalgene International, Rochester, N.Y.), and analyzed on a Tecan SpectraFlour Plus plate reader. The excitation wavelength was 330 nm, and the emission wavelength—420 nm. All samples (assayed compounds and controls) were incubated in separate plate wells at room temperature for 1 hr in the presence of 4 μM of MMP substrate (I). In the absence of MMP inhibitory activity, substrate (I) was cleaved at the Gly-Leu bond resulting in an increase of relative fluorescence. Inhibition was observed as a reduced rate of this increase in relative fluorescence. […] This protocol is a modification of method by Knight et al., FEBS Lett., 296(3), 263-266 (1992). Apparent inhibitory constants were determined by non-linear regression of reaction velocity as a function of inhibitor and enzyme concentration using Morrison's equation, as described by Kuzmic, Anal. Biochem. 286, 45-50 (2000). Modifications were made in the non-linear regression method to allow a common control reaction rate and effective enzyme concentration to be shared between all dose-response relationships on a given assay plate. Since the substrate concentration was chosen to be at or below the Km, the apparent Ki's from this analysis were reported as Ki's without correction for the influence of substrate.
The above protocols were used to determine Ki constants for the compounds in Examples 2-35 above. All Ki values in Table 1 are given in nM units.

Row | SMILES | pKi (Human recombinant MMP-13; Table 2) | pKi (Human recombinant MMP-9; Table 2) | pKi (Human recombinant MMP-13; Table 1) | pKi (Human recombinant MMP-9; Table 1)
1 | O=C(NO)C1(S(=O)(=O)c2ccc(-c3ccc(OCCCC(F)(F)F)cc3)cc2)CCOCC1 [Example 74] | 9.99 | 8.47 | – | –
2 | COCC#Cc1cnc(-c2ccc(S(=O)(=O)C3(C(=O)NO)CCOCC3)cc2)cn1 [Example 164] | 10.05 | 9.24 | – | –
3 | COCCN1CCC(C(=O)NO)(S(=O)(=O)c2ccc(-c3cnc(OCC(F)(F)C(F)(F)F)cn3)cc2)CC1 [Example 157] | 9.59 | 9.38 | – | –
4 | CCN1CCC(C(=O)NO)(S(=O)(=O)c2ccc(-c3noc(-c4ccc(C(F)(F)F)cc4)n3)cc2)CC1 [Example 149] | 9.35 | 8.29 | – | –
5 | O=C(NO)C1(S(=O)(=O)c2ccc(-c3cnc(-c4cccs4)cn3)cc2)CCOCC1 [Example 160] | 9.15 | 8.50 | – | –
6 | CC(C)(C)CCNc1cnc(-c2ccc(S(=O)(=O)C3(C(=O)NO)CCOCC3)cc2)cn1 [Example 130] | 8.90 | 7.89 | – | –
7 | CCN1CCC(C(=O)NO)(S(=O)(=O)c2ccc(-c3ccc(Oc4ccccc4)cc3)cc2)CC1 [Example 135] | 9.13 | 8.00 | – | –
8 | O=C(NO)C1(S(=O)(=O)c2ccc(-c3ccc(-c4ccccc4)cn3)cc2)CCN(C2CC2)CC1 [Example 151] | 10.30 | 10.05 | – | –
9 | O=C(NO)C1(S(=O)(=O)c2ccc(-c3cnc(CCC(F)(F)F)cn3)cc2)CCOCC1 [Example 62] | – | – | 9.35 | 8.74
10 | O=C(NO)C1(S(=O)(=O)c2ccc(-c3cscc3-c3ccc(F)cc3)cc2)CCOCC1 [Example 132] | 7.15 | 6.53 | – | –
11 | O=C(NO)C1(S(=O)(=O)c2ccc(-c3cnc(NCC4CC4)cn3)cc2)CCOCC1 [Example 128] | 8.47 | 8.36 | – | –
12 | CCCCOc1ccc(-c2ccc(S(=O)(=O)C3(C(=O)NO)CCN(C4CC4)CC3)cc2)cc1 [Example 120] | 10.09 | 9.47 | – | –
13 | COCCN1CCC(C(=O)NO)(S(=O)(=O)c2ccc(-c3ccc(OC(F)(F)C(F)F)cc3)cc2)CC1 [Example 39] | – | – | 10.96 | 10.35
14 | CCCCc1ccc(-c2ccc(S(=O)(=O)C3(C(=O)NO)CCN(CC)CC3)cc2)nc1 [Example 140] | 10.24 | 9.90 | – | –
15 | O=C(NO)C1(S(=O)(=O)c2ccc(-c3cnc(OCC(F)(F)C(F)(F)F)cn3)cc2)CCN(C2CC2)CC1 [Example 156] | 9.51 | 9.32 | – | –
16 | COCCN1CCC(C(=O)NO)(S(=O)(=O)c2ccc(-c3ccc(CCCC(F)(F)F)cc3)cc2)CC1 [Example 43] | – | – | 10.22 | 9.37
17 | O=C(NO)C1(S(=O)(=O)c2ccc(-c3ccc(OCCCC(F)(F)F)cn3)cc2)CCOCC1 [Example 144] | 11.15 | 8.95 | – | –
18 | CCN1CCC(C(=O)NO)(S(=O)(=O)c2ccc(-c3ccc(CCC(C)(F)F)cc3)cc2)CC1 [Example 61] | – | – | 10.70 | 9.59

The remaining lines, values ahead:

Row | pKi (Human recombinant MMP-13; Table 2) | pKi (Human recombinant MMP-9; Table 2) | pKi (Human recombinant MMP-13; Table 1) | pKi (Human recombinant MMP-9; Table 1) | SMILES
19 | – | – | 10.15 | 9.24 | CCN1CCC(C(=O)NO)(S(=O)(=O)c2ccc(-c3ccc(CCC(F)(F)C(F)(F)F)cn3)cc2)CC1 [Example 52]
20 | 10.52 | 8.72 | – | – | O=C(NO)C1(S(=O)(=O)c2ccc(-c3ccc(-n4ccnc4)cc3)cc2)CCOCC1 [Example 127]
21 | 8.31 | 7.24 | – | – | O=C(NO)C1(S(=O)(=O)c2ccc(-c3ncccn3)cc2)CCOCC1 [Example 121]
22 | 9.82 | 9.74 | – | – | O=C(NO)C1(S(=O)(=O)c2ccc(-c3ccc(-c4ccccc4)cc3)cc2)CCN(C2CC2)CC1 [Example 153]
23 | – | – | 10.09 | 9.14 | O=C(NO)C1(S(=O)(=O)c2ccc(-c3ccc(CCCC(F)(F)F)cn3)cc2)CCOCC1 [Example 69]
24 | 8.59 | 8.15 | – | – | CCN1CCC(C(=O)NO)(S(=O)(=O)c2ccc(-c3noc(-c4ccc(F)cc4)n3)cc2)CC1 [Example 147]
25 | 9.77 | 8.94 | – | – | O=C(NO)C1(S(=O)(=O)c2ccc(-c3ncc(CCC(F)(F)C(F)(F)F)cn3)cc2)CCOCC1 [Example 137]
26 | 7.50 | 6.94 | – | – | CC(=O)Nc1cnc(-c2ccc(S(=O)(=O)C3(C(=O)NO)CCOCC3)cc2)cn1 [Example 76]
27 | 8.24 | 7.41 | – | – | CCN1CCC(C(=O)NO)(S(=O)(=O)c2ccc(-c3noc(-c4ccncc4)n3)cc2)CC1 [Example 148]
28 | – | – | 10.15 | 9.72 | COCCN1CCC(C(=O)NO)(S(=O)(=O)c2ccc(-c3ccc(CCC(C)(F)F)cn3)cc2)CC1 [Example 67]
29 | – | – | 11.00 | 10.10 | COCCN1CCC(C(=O)NO)(S(=O)(=O)c2ccc(-c3ccc(CCC(C)(F)F)cc3)cc2)CC1 [Example 63]
30 | 9.92 | 9.47 | – | – | O=C(NO)C1(S(=O)(=O)c2ccc(-c3cnc(OCC(F)(F)C(F)(F)F)cn3)cc2)CCOCC1 [Example 154]
31 | – | – | 9.65 | 9.03 | O=C(NO)C1(S(=O)(=O)c2ccc(-c3ccc(CCC(F)(F)C(F)(F)F)cc3)cc2)CCOCC1 [Example 41]
32 | – | – | 9.35 | 8.78 | O=C(NO)C1(S(=O)(=O)c2ccc(-c3cnc(CCCC(F)(F)F)cn3)cc2)CCOCC1 [Example 58]
33 | 8.28 | 8.21 | – | – | CCCCc1ccc(-c2ccc(S(=O)(=O)C3(C(=O)NO)CCN(CC)CC3)cc2)cn1 [Example 139]
34 | 10.96 | 10.52 | – | – | CCOc1ccc(-c2ccc(S(=O)(=O)C3(C(=O)NO)CCOCC3)cc2)cc1 [Example 163]
35 | – | – | 10.22 | 9.00 | CCN1CCC(C(=O)NO)(S(=O)(=O)c2ccc(-c3ccc(CCCC(F)(F)F)cn3)cc2)CC1 [Example 53]
36 | – | – | 10.70 | 9.90 | O=C(NO)C1(S(=O)(=O)c2ccc(-c3ccc(OC(F)(F)C(F)F)cc3)cc2)CCN(CCl)CC1 [Example 38]
37 | 10.92 | 9.06 | – | – | CCN1CCC(C(=O)NO)(S(=O)(=O)c2ccc(-c3ccc(OCCCCO)cc3)cc2)CC1 [Example 118]
38 | 9.92 | 9.33 | – | – | O=C(NO)C1(S(=O)(=O)c2ccc(-c3ccc(-c4ccccc4F)cn3)cc2)CCN(C2CC2)CC1 [Example 150]
39 | 10.74 | 9.82 | – | – | CCCCOc1ccc(-c2ccc(S(=O)(=O)C3(C(=O)NO)CCN(CCOC)CC3)cc2)cc1 [Example 119]
40 | 10.15 | 9.68 | – | – | O=C(NO)C1(S(=O)(=O)c2ccc(-c3ccc(CCC(F)(F)F)cc3)cc2)CCOCC1 [Example 161]
